Experimental data from patent US9682993B2, “Anticancer compounds” (ST. JUDE CHILDREN'S RESEARCH HOSPITAL, priority 2012, dated 2017).
Where two headings read alike, the source gives them in different places.

Assays:
JeKo1 = assay: In vitro cytotoxicity analysis, JeKo1; format: cell-based; settings: Homo sapiens, JeKo-1
Description: (§1) The A549 lung cancer, WiDr colorectal cancer, MCF-7 breast cancer, PC-3 prostate cancer, and OVCAR-3 ovarian cancer cell lines were purchased from the American Type Culture Collection (ATCC, Manassas, Va.) and were maintained in growth media as recommended by the ATCC. The JeKo-1 and JVM-2 mantle cell lymphoma cell lines were purchased from the DSMZ (Brunswick, Germany) and were maintained in growth media as recommended by the vendor. The pediatric rhabdomyosarcoma Rh18 cell line was provided y Dr. P. Houghton (Ohio State University—Nationwide Children's Hospital, Columbus, Ohio) and were maintained in growth media as recommended by Dr. Houghton. All cell culture media were supplemented with L-glutamine and penicillin/streptomycin. All cells were grown under standard culture conditions in CO2 incubators, at 37° C., with 5% CO2, and 100% relative humidity.
(§2) Cell viabilities were determined by measuring the cleavage of (sodium 3′-[1-(phenylaminocarbonyl)-3,4-tetrazolium]-bis(4-methoxy-6-nitro)benzene sulfonic acid hydrate) (XTT) to a water-soluble orange formazan by mitochondrial dehydrogenase, following the manufacturer's instructions (Roche Applied Science, Indianapolis, Ind.). Briefly, cell lines were seeded at various cell densities depending on the cell type. The adherent cell lines were allowed to adhere overnight before compound addition, whereas the suspension cell lines were seeded the day of compound addition. Stock concentrations of the compounds were made in DMSO, diluted in culture media and subsequently added to the plates at various final concentrations, then incubated for 72 hours. After the incubation period, the XTT labeling reagent, containing the electron-coupling reagent, was added to each well and incubated for 4 hours. The absorbance of each well was then read at 490 nm with a reference wavelength of 690 nm using a VersaMax™ microplate reader (Sunnyvale, Calif.). Data are expressed as the percentage of growth compared to vehicle-treated cells, as calculated from absorbance and corrected for background absorbance.
(§3) Alternatively, cell lines were seeded in 100 μL cell culture medium in 96-well plates. Depending on the cell proliferation rate, cells were seeded at 4,000 to 6,000 cells/well. Suspension cell cultures were initiated with 20,000 cells/well. The cells were incubated overnight at 37° C., and then the drug treatments were started by adding 50 μL medium containing the corresponding drug dilution and DMSO. The final concentration of DMSO onto the cells was 0.5% v/v in all wells. The cells viability was determined using the CellTiter-Glo Luminescent Cell Viability Assay (Promega, Madison, Wis.). The CellTiter-Glo reagent was prepared according to the manufacturer's instructions, and then 50 μL reagent was added to each well for 1 h at rt. The luminescence was measured on an Envision Multilabel Plate Reader (PerkinElmer, Waltham, Mass.). The IC50 values were calculated from the dose-response curve analysis with GraphPad Prism 6.01 (GraphPad Software, La Jolla, Calif.) using the nonlinear regression model 4 Parameter Logistic. Nine concentrations were generated by 1:2 serial dilutions for each IC50 assay. Each drug concentration was evaluated in triplicate or quadruplicate.

[1] = tested on: cytotoxicity or splicing modulation; assay: Rapid onset of cytotoxicity or splicing modulation; format: cell-based; settings: maximum cytotoxicity or splicing modulation within 5 hours of drug treatment
Method: The cell were seeded in of 100 μl of medium into 96-well plates (HeLa at 4×10^4 cell/well; SK_MEL_2 at 6×10^4 cell/well), they were allowed to attach overnight, and then treatments started by adding 50 μl of medium containing Sudemycin D6 to produce a final concentration of 1 μM and DMSO to 0.5% v/v final into the experimental well. Continuous drug treatments were run in the same plate, using concentrations of 0, 62.5, 125, 250, 500 & 1000 nM final. DMSO was added into all wells, including non-treated wells to 0.5% v/v final concentration. For wells where the drug was withdrawn, the medium was carefully aspirated after 1, 2, 3 and 4 hours after the addition of the drug, the cells were washed once with PBS and then 150 μl of fresh cell culture medium containing 0.5% v/v DMSO was added into all washed out wells. After 72 hours of the addition of drug, the cell viability was determined using CellTiter-Glo luminescent cell viability assay (Promega, Madison, Wis.), and Sudemycin D6 cytotoxicity was calculated as the percentage of cell proliferation inhibition against the control treatment DMSO.

[2] = Solubility in phosphate buffered saline (HPLC); format: physicochemical
[3] = Mouse plasma stability (HPLC); format: in vitro ADME; settings: mouse plasma at 37° C.
[4] = tested on: MDM2 alternative splicing in Rh18 cells; assay: In vitro alternative splicing assay (MDM2, RT-PCR); format: cell-based; settings: for MDM2 Splicing Effects: Rh18 cells, 8 h exposure, Table II
Method: Briefly, following an 8 h exposure of exponentially growing cells to drug, total RNA was isolated using TRIzol reagent (Invitrogen, Carlsbad, Calif.). Total RNA (1 μg) was used to convert the mRNA to cDNA by using random primers, Oligo(dT)16 and Omniscript Reverse Transcription Kit (Qiagen, Germantown, Md.). PCR analyses were performed using specific oligonucleotides (see Table I) and standard amplification protocols. PCR products were separated by agarose gel electrophoresis, visualized by ethidium bromide staining on an UV transilluminator, and recorded. PCR band sizes were calculated by comparing them to the standard EZ Load 100-bp PCR Molecular Ruler (BioRad Laboratories, Hercules, Calif.).

PC3 = assay: In vitro cytotoxicity analysis, PC3; format: cell-based; settings: Homo sapiens
Description: as §1, §2, §3

HeLa = assay: Drug combination assay, HeLa; format: cell-based
Method: (§4) Preliminary cytotoxic screenings for each drug used in drug combination assays were performed to determine their cytotoxic dose range. […] Eight concentrations were established by 1:3 serial dilutions of the single drugs and their combinations with the splicing modulators. All drug concentrations were evaluated in triplicate in 96-well cell culture plates. Assays of individual drugs and drug combinations were run on the same tissue culture plate. Cell viability was determined using the CellTiter-Glo reagent. Drug interactions, in terms of synergism, additive effect, or antagonism, were based on the drugs' Combination Index (CI) (Chou et al., Adv. Enzyme Regul. 1984, 22, 27).
(§5) Luminescence data obtained from the cell viability determinations were formatted per the requirements of the analytical software (viability data range: >0 and <1). The formatted data were analyzed with the software CalcuSyn 2.1 (Biosoft, Cambridge, UK), which provides quantitative CI values for the drug interaction analyses (see ranges in Supplementary Table S2). […] Therefore, in these two cases the drug interaction was evaluated by comparing the IC50 value of Sudemycin with that of the IC50 values resulting from the serial dilutions of the splicing modulator combined with a constant dose of the non-toxic drug.

cell lines investigated = assay: Drug combination assays, cell line not stated; format: cell-based
Method: as §4, with “reagent.” for “reagent. Drug interactions, in terms of synergism, additive effect, or antagonism, were based on the drugs' Combination Index (CI) (Chou et al., Adv. Enzyme Regul. 1984, 22, 27).”
(§6) Luminescence data obtained from the cell viability determinations were formatted per the requirements of the analytical software (viability data range: >0 and <1). The formatted data were analyzed with the software CalcuSyn 2.1 (Biosoft, Cambridge, UK), which provides quantitative CI values for the drug interaction analyses (see ranges in Supplementary Table S2).

SK-MEL-2 = assay: Drug combination assay, SK-MEL-2; format: cell-based; settings: for Interaction Type: listed drug combined with compound 19, Ineffective = drug IC50 much higher than 1 μM
Method: as §4, with “reagent.” for “reagent. Drug interactions, in terms of synergism, additive effect, or antagonism, were based on the drugs' Combination Index (CI) (Chou et al., Adv. Enzyme Regul. 1984, 22, 27).”
as §6

Sk-N-AS = assay: Drug combination assay, Sk-N-AS neuroblastoma; format: cell-based; settings: Sk-N-AS; inhibitor + compound 19
Method: as §4, with “reagent.” for “reagent. Drug interactions, in terms of synergism, additive effect, or antagonism, were based on the drugs' Combination Index (CI) (Chou et al., Adv. Enzyme Regul. 1984, 22, 27).”
as §6

WiDr = assay: Drug combination assay, WiDr; format: cell-based; settings: inhibitor + compound 19
Method: as §4, §5

PC-3 = assay: Drug combination assay, PC-3; format: cell-based; settings: inhibitor + compound 19
Method: as §4, §5

[5] = tested on: AML blast cells with wild-type or mutant S34F U2AF1, CD34+ cells; assay: Replication by 5-ethynyl-2′-deoxyuridine incorporation; format: cell-based; settings: concentration dependent; mutant vs wild-type U2AF1 AML blasts vs CD34+ cells
Method: Replication was determined from incorporation of 5-ethynyl-2′-deoxyuridine using standard assay techniques.

[6] = tested on: c-kit positive bone marrow cells transduced with GFP, WT-U2AF1 or MUT-U2AF1 (S34F); assay: GFP expression and apoptosis in U2AF1 transduced cells; format: cell-based, C57BL/6 mice
Method: Bone marrow was collected from C57BL/6 mice and pooled together in a single solution, and then c-kit positive cells were selected. The c-kit positive cells were cultured with media enriched with stem cell factor (SCF), Flt-3, IL3, and thromboprotein (TPO), and other cytokines. Murine stem cell virus (MSCV) was used to transduce these cells with one of three constructs as indicated in the figure: GFP (control), U2AF1-IRES-GFP (indicated as WT-U2AF1 in the figure), or U2AF1^S34F-IRES-GFP (indicated as MUT-U2AF1 in the figure). The transduced cells carry a construct that expresses GFP and as indicated wild-type or mutant U2AF1. The control cells construct expresses only GFP. […] The assay data are expressed as the percentage of annexin V stained cells among the GFP positive cells. […] These cells show an increased tendency to apoptosis (i.e. increased expression of annexin V) in the GFP positive cells.

[7] = PC-3, Table III, read-out: PC3 IC50

CC(/C=C/[C@@H]1C[C@]2(CO2)CC(C)(C)O1)=C\C[C@H]1CC[C@@H](NC(=O)/C=C\[C@H](C)OC(=O)C(C)C)CC1
IC50 (JeKo1; Table II): 47 nM
Rapid Onset [1]: Yes (“Yes” indicates maximum cytotoxicity or splicing modulation is seen within 5 hours of drug treatment.)
Buffer Soluble [2]: No
Plasma Stability [3]: No
MDM2 Splicing Effects [4]: Yes

CCCCNC(=O)O[C@@H](C)/C=C\C(=O)N[C@H]1CO[C@@H](C/C=C(C)/C=C/[C@@H]2C[C@]3(CO3)CC(C)(C)O2)OC1
IC50 (JeKo1; Table III): > 1000 nM
IC50 (PC3; [7]): > 10000 nM

CCN(CC)C(=O)O[C@@H](C)/C=C\C(=O)N[C@H]1CO[C@@H](C/C=C(C)/C=C/[C@@H]2C[C@]3(CO3)CC(C)(C)O2)OC1
IC50 (JeKo1; Table III): > 1000 nM
IC50 (PC3; PC-3, read-out: PC3 IC50): > 10000 nM

COCCNC(=O)O[C@@H](C)/C=C\C(=O)N[C@H]1CO[C@@H](C/C=C(C)/C=C/[C@@H]2C[C@]3(CO3)CC(C)(C)O2)OC1
IC50 (JeKo1; Table III): > 1000 nM
IC50 (PC3; [7]): > 10000 nM

CNC(=O)O[C@@H](C)/C=C\C(=O)N[C@H]1CO[C@@H](C/C=C(C)/C=C/[C@@H]2C[C@]3(CO3)CC(C)(C)O2)OC1
IC50 (JeKo1; Table III): 900 nM
IC50 (PC3; PC-3, read-out: PC3 IC50): > 10000 nM

CC(/C=C/[C@@H]1C[C@]2(CO2)CC(C)(C)O1)=C\C[C@H]1OC[C@@H](NC(=O)/C=C\[C@H](C)OC(N)=O)CO1
IC50 (JeKo1; Table III): 1900 nM
IC50 (PC3; [7]): > 10000 nM

O=C(O)CCCCCCCCCCCNC(=O)NC12CC3CC(CC(C3)C1)C2 [AUDA]
cytotoxicity alone (HeLa; HeLa cells, 15 μM): not cytotoxic
drug interaction with compound 19 (panel of 23 drugs) (cell lines investigated): synergy
cytotoxic effect of drug alone (cell lines investigated; single drug in combination assays): Neither AUDA nor NCND alone produced a cytotoxic effect
Interaction Type (SK-MEL-2): Synergism (0.3-0.7)

C=CCN(/C=C1/C(=O)O[C@H](COC)[C@@]2(C)C1=C(O)C(=O)C1=C2[C@H](OC(C)=O)C[C@]2(C)C(=O)CC[C@@H]12)CC=C [PX-866]
CI of 19 + inhibitor (HeLa; HeLa, inhibitor + compound 19): 0.49
CI of 19 + inhibitor (Sk-N-AS): 0.65
CI of 19 + inhibitor (WiDr): 0.33
CI of 19 + inhibitor (PC-3): 0.67
drug interaction with compound 20 (cell lines investigated): demonstrated synergy
CI in SK-MEL-2 with compound 19 (SK-MEL-2; Combination Index at ED50, CalcuSyn 2.1, listed drug + compound 19): 0.57
CI of 19 + inhibitor (SK-MEL-2; SK-MEL-2, inhibitor + compound 19): 0.57
Interaction Type (SK-MEL-2): Synergism (0.3-0.7)

CC(/C=C/[C@@H]1C[C@]2(CO2)CC(C)(C)O1)=C\C[C@H]1CC[C@@H](NC(=O)/C=C\[C@H](C)OC(=O)N(C)C)CC1 [compound 19, (S,Z)-5-(((1R,4R)-4-((2E,4E)-5-((3R,5S)-7,7-Methyl-1,6-Dioxaspiro[2.5]Octan-5-Yl)-3-Methylpenta-2,4-Dien-1-Yl)Cyclohexyl)Amino)-5-Oxopent-3-En-2-Yl Dimethylcarbamate]
effect on replication [5]: cells expressing mutant U2AF1 are extremely sensitive
synergy with PI3K/mTOR inhibition (cell lines investigated; all cell lines investigated): synergy is also seen
apoptosis (annexin V stained cells among GFP positive cells) ([6]; 75 or 100 nM): cells expressing mutant U2AF1 the most sensitive
effect on expression of GFP from the splicing construct ([6]; concentration dependent, GFP vs WT-U2AF1 vs MUT-U2AF1 cells): greater sensitivity realized in the mutant U2AF1 cells
alternative MDM2 splicing ([4]; Rh18, 8 h, PCR (FIG. 9)): induction of alternative MDM2 splicing

CNC(=O)O[C@@H](C)/C=C\C(=O)N[C@H]1CC[C@@H](C/C=C(C)/C=C/[C@@H]2C[C@]3(CO3)CC(C)(C)O2)CC1 [drawing 208]
IC50 (JeKo1; Table II): 22 nM
Rapid Onset [1]: Yes (“Yes” indicates maximum cytotoxicity or splicing modulation is seen within 5 hours of drug treatment.)
solubility ([2]; aqueous buffer, read-out: Buffer Soluble): > 10 µM
Plasma Stability [3]: Yes (“Yes” indicates mouse plasma stability is >5 hours in mouse plasma at 37 °C as determined by HPLC.)
MDM2 Splicing Effects [4]: Yes
